Experiments:
Type in all cases: cell-based, human
[1] = tested on: SW1990 pancreatic cancer cells; assay: MTS assay of SW1990 cultures, single 50 μM dose; details: SW1990, 50 μM
Protocol: SW1990 pancreatic cancer cells […] were cultured in complete DMEM media containing 10% fetal bovine serum (FBS) and 1% penicillin-streptomycin, and 1% L-glutamine. BxPc-3 pancreatic cancer cells were cultured in complete RPMI media containing 10% fetal bovine serum (FBS), and 1% penicillin-streptomycin, 1% HEPES buffer, 1% sodium pyruvate and 1% L-glutamine. HPDE6-C7 cells were cultured in serum-free keratinocyte SFM media. All cells were maintained at 37° C. in a humidified incubator with 5% CO2. The cells were treated with a single 50 μM dose of vehicle (ethanol extracted olive oil), T3 alpha (alpha tocotrienol), T3 beta (beta tocotrienol), T3 gamma (gamma tocotrienol), T3 delta (delta tocotrienol), T alpha (alpha tocopherol), T beta (beta tocopherol), TS (tocopherol succinate), GG (geranylgeraniol), SA (succinic acid). A control culture (i.e., only vehicle with no treatment) was grown alongside the treatments for comparison. Cell viability was measured using MTS assay at preselect times of 24, 48, or 72 hours after treatment.

BXPC3 cells = assay: MTT assay of BXPC3 cultures, single 50 μM dose; set-up: MTT assay result, run 1 / MTT assay result, run 2 / MTT assay result, run 3 / MTT assay result, run 4 / MTT assay result, run 5 / MTT assay result, run 6 / MTT assay result, run 7 / MTT assay result, av (average) / MTT assay result, av-blank / MTT assay result, av: unit not given here; details: BXPC3, 50 μM; for MTT assay result, av-blank: average minus blank
Protocol: BXPC3 cells were cultured in complete […] media containing 10% fetal bovine serum (FBS) and 1% penicillin-streptomycin, and 1% L-glutamine. BxPc-3 pancreatic cancer cells were cultured in complete RPMI media containing 10% fetal bovine serum (FBS), and 1% penicillin-streptomycin, 1% HEPES buffer, 1% sodium pyruvate and 1% L-glutamine HPDE6-C7 cells were cultured in serum-free keratinocyte SFM media. All cells were maintained at 37° C. in a humidified incubator with 5% CO2. The cells were treated with a single 50 μM dose of vehicle (vehicle only, may be a solvent), T3 alpha (alpha tocotrienol), T3 beta (beta tocotrienol), T3 gamma (gamma tocotrienol), T3 delta (delta tocotrienol), T alpha (alpha tocopherol), T beta (beta tocopherol), TS (tocopherol succinate), GG (geranylgeraniol), SA (succinic acid). A control (no treatment) culture was grown alongside the treatments for comparison. Cell viability was measured using MTT assay at preselect times of 48 or 120 hours after treatment.

MiaPaCa-2 cells = assay: MTT assay of MiaPaCa2 cultures, single 50 μM dose; set-up: rel amt (relative value set to the control): unit not given here; details: MiaPaCa2, 50 μM; for MTT assay result, av-blank: average minus blank; for MTT assay result, av: average of 7 runs
Protocol: MiaPaCa-2, BxPc-3, and HPDE6-C7 cells were cultured as described above, and treated with a single 50 μM dose of vehicle (ethanol extracted olive oil), T3 alpha (alpha tocotrienol), T3 beta (beta tocotrienol), T3 gamma (gamma tocotrienol), T3 delta (delta tocotrienol), T alpha (alpha tocopherol), T beta (beta tocopherol), TS (tocopherol succinate), GG (geranylgeraniol), SA (succinic acid). A control culture (vehicle only with no treatment) was grown alongside the treatments for comparison. Cell viability was measured using MTT assay at preselect times of 48 or 120 hours after treatment.

## CC(C)=CCC/C(C)=C/CC/C(C)=C/CC[C@]1(C)CCc2cc(O)c(C)c(C)c2O1 [T3 gamma, gamma tocotrienol]
[1]; 24 hours
  rel amnt (relative value set to the control): 107
  MTS assay result, run 1: 0.169
  MTS assay result, run 2: 0.161
  MTS assay result, run 3: 0.163
  MTS assay result, run 4: 0.143
  MTS assay result, run 5: 0.15
  MTS assay result, run 6: 0.158
  MTS assay result, run 7: 0.159
  MTS assay result, run 8: 0.151
  MTS assay result, run 9: 0.157
[1]; 48 hours
  rel amnt (relative value set to the control): 89
  MTS assay result, run 1: 0.114
  MTS assay result, run 2: 0.125
  MTS assay result, run 3: 0.13
  MTS assay result, run 4: 0.123
  MTS assay result, run 5: 0.137
  MTS assay result, run 6: 0.137
  MTS assay result, run 7: 0.16
  MTS assay result, run 8: 0.16
  MTS assay result, run 9: 0.135
[1]; 72 hours
  rel amnt (relative value set to the control): 177
  MTS assay result, run 1: 0.776
  MTS assay result, run 2: 0.744
  MTS assay result, run 3: 0.88
  MTS assay result, run 4: 0.734
  MTS assay result, run 5: 0.812
  MTS assay result, run 6: 0.817
  MTS assay result, run 7: 0.77
  MTS assay result, run 8: 0.759
  MTS assay result, run 9: 0.786
BXPC3 cells; 48 hours
  rel amt (relative value set to the control): 99
  MTT assay result, av-blank: 0.226
  MTT assay result, run 1: 0.259
  MTT assay result, run 2: 0.257
  MTT assay result, run 3: 0.289
  MTT assay result, run 4: 0.279
  MTT assay result, run 5: 0.268
  MTT assay result, run 6: 0.292
  MTT assay result, run 7: 0.283
BXPC3 cells; 48 hours, average of 7 runs
  MTT assay result, av (average): 0.275
BXPC3 cells; 120 hours (5 days)
  rel amt (relative value set to the control): 66
  MTT assay result, av-blank: 0.377
  MTT assay result, run 1: 0.418
  MTT assay result, run 2: 0.446
  MTT assay result, run 3: 0.446
  MTT assay result, run 4: 0.457
  MTT assay result, run 5: 0.428
  MTT assay result, run 6: 0.412
  MTT assay result, run 7: 0.42
BXPC3 cells; 120 hours (5 days), average of 7 runs
  MTT assay result, av: 0.432
MiaPaCa-2 cells; 48 hours
  rel amt (relative value set to the control): 40
  MTT assay result, av-blank: 0.124
  MTT assay result, av: 0.170
  MTT assay result, run 1: 0.185
  MTT assay result, run 2: 0.181
  MTT assay result, run 3: 0.156
  MTT assay result, run 4: 0.183
  MTT assay result, run 5: 0.21
  MTT assay result, run 6: 0.141
  MTT assay result, run 7: 0.137
MiaPaCa-2 cells; 120 hours (5 days)
  rel amt (relative value set to the control): 2
  MTT assay result, av-blank: 0.042
  MTT assay result, av: 0.094
  MTT assay result, run 1: 0.088
  MTT assay result, run 2: 0.084
  MTT assay result, run 3: 0.098
  MTT assay result, run 4: 0.089
  MTT assay result, run 5: 0.12
  MTT assay result, run 6: 0.084
  MTT assay result, run 7: 0.092

— US8846653B2, “Delta-tocotrienol treatment and prevention of pancreatic cancer” (University of South Florida, priority 2006, dated 2014)
